Assay results reported in the NIST ThermoML archive (doi:10.1016/j.jct.2011.09.001).
Numbers after ± are expanded uncertainties.

Tests used:
[1] = xn = mol fraction of the nth substance listed; conditions: 101 kPa, Liquid; for speed of sound: Sing-around technique in a fixed-path interferometer; for mass density: Vibrating tube method
[2] = refractive index (Na D-line) (dimensionless); xn = mol fraction of the nth substance listed; conditions: 101 kPa, Liquid, Standard Abbe refractometry

c1ccc2c(c1)CCCC2 [1,2,3,4-tetrahydronaphthalene] + CCCCCCCCCC
Conditions	mass density, [1] [kg/m3]	refractive index, [2]	speed of sound, [1] [m/s]
293.15 K, x1 = 0.1008	747.8 ± 0.3	1.4216 ± 0.0005	1269.3 ± 1.2
293.15 K, x1 = 0.2034	766.8 ± 0.3	1.4319 ± 0.0005	1285.2 ± 1.2
293.15 K, x1 = 0.3	786.3 ± 0.3	1.4422 ± 0.0005	1302.2 ± 1.2
293.15 K, x1 = 0.401	807.5 ± 0.3	1.4535 ± 0.0005	1320.2 ± 1.2
293.15 K, x1 = 0.494	828.5 ± 0.2	1.4648 ± 0.0005	1340.6 ± 1.2
293.15 K, x1 = 0.5949	852.8 ± 0.2	1.4778 ± 0.0005	1363.5 ± 1.2
293.15 K, x1 = 0.7009	880.2 ± 0.2	1.4925 ± 0.0005	1391.2 ± 1.2
293.15 K, x1 = 0.7974	907 ± 0.3	1.5071 ± 0.0005	1418.8 ± 1.2
293.15 K, x1 = 0.8997	937.9 ± 0.3	1.5239 ± 0.0005	1452.7 ± 1.2
293.15 K, x1 = 1	969.5 ± 0.2	1.5414 ± 0.0005	1489.5 ± 1.3
303.15 K, x1 = 0.1008	740.2 ± 0.3	1.4171 ± 0.0005	1230 ± 1.2
303.15 K, x1 = 0.2034	759.1 ± 0.3	1.4274 ± 0.0005	1246.1 ± 1.2
303.15 K, x1 = 0.3	778.6 ± 0.3	1.4376 ± 0.0005	1263.3 ± 1.2
303.15 K, x1 = 0.401	799.8 ± 0.3	1.449 ± 0.0005	1281.4 ± 1.2
303.15 K, x1 = 0.494	820.8 ± 0.3	1.4602 ± 0.0005	1301.9 ± 1.2
303.15 K, x1 = 0.5949	845.1 ± 0.2	1.4733 ± 0.0005	1324.9 ± 1.2
303.15 K, x1 = 0.7009	872.4 ± 0.2	1.488 ± 0.0005	1352.5 ± 1.2
303.15 K, x1 = 0.7974	899.1 ± 0.3	1.5026 ± 0.0005	1380.1 ± 1.2
303.15 K, x1 = 0.8997	930 ± 0.3	1.5193 ± 0.0005	1413.8 ± 1.2
303.15 K, x1 = 1	961.6 ± 0.2	1.5367 ± 0.0005	1450.1 ± 1.2
313.15 K, x1 = 0.1008	732.6 ± 0.3	1.4126 ± 0.0005	1191.3 ± 1.2
313.15 K, x1 = 0.2034	751.5 ± 0.3	1.4229 ± 0.0005	1207.6 ± 1.2
313.15 K, x1 = 0.3	770.9 ± 0.3	1.4331 ± 0.0005	1224.9 ± 1.2
313.15 K, x1 = 0.401	792.1 ± 0.3	1.4445 ± 0.0005	1243.1 ± 1.2
313.15 K, x1 = 0.494	812.9 ± 0.3	1.4556 ± 0.0005	1263.8 ± 1.2
313.15 K, x1 = 0.5949	837.3 ± 0.3	1.4688 ± 0.0005	1286.8 ± 1.2
313.15 K, x1 = 0.7009	864.7 ± 0.2	1.4835 ± 0.0005	1314.5 ± 1.2
313.15 K, x1 = 0.7974	891.4 ± 0.3	1.498 ± 0.0005	1342.1 ± 1.2
313.15 K, x1 = 0.8997	922.1 ± 0.3	1.5148 ± 0.0005	1375.5 ± 1.2
313.15 K, x1 = 1	953.7 ± 0.2	1.5321 ± 0.0005	1411.5 ± 1.2
323.15 K, x1 = 0.1008	724.9 ± 0.3	1.4081 ± 0.0005	1153.1 ± 1.2
323.15 K, x1 = 0.2034	743.8 ± 0.3	1.4183 ± 0.0005	1169.6 ± 1.2
323.15 K, x1 = 0.3	763.2 ± 0.3	1.4285 ± 0.0005	1187.1 ± 1.2
323.15 K, x1 = 0.401	784.3 ± 0.3	1.4399 ± 0.0005	1205.4 ± 1.2
323.15 K, x1 = 0.494	805.2 ± 0.3	1.4511 ± 0.0005	1226.2 ± 1.2
323.15 K, x1 = 0.5949	829.5 ± 0.3	1.4642 ± 0.0005	1249.3 ± 1.2
323.15 K, x1 = 0.7009	856.8 ± 0.3	1.479 ± 0.0005	1277.1 ± 1.2
323.15 K, x1 = 0.7974	883.6 ± 0.3	1.4933 ± 0.0005	1304.6 ± 1.2
323.15 K, x1 = 0.8997	914.2 ± 0.3	1.5102 ± 0.0005	1337.9 ± 1.2
323.15 K, x1 = 1	945.7 ± 0.2	1.5274 ± 0.0005	1373.6 ± 1.2
333.15 K, x1 = 0.1008	717.2 ± 0.3	1.4035 ± 0.0005	1115.5 ± 1.2
333.15 K, x1 = 0.2034	736 ± 0.3	1.4137 ± 0.0005	1132.1 ± 1.2
333.15 K, x1 = 0.3	755.4 ± 0.3	1.4238 ± 0.0005	1149.8 ± 1.2
333.15 K, x1 = 0.401	776.5 ± 0.3	1.4355 ± 0.0005	1168.2 ± 1.2
333.15 K, x1 = 0.494	797.3 ± 0.3	1.4463 ± 0.0005	1189.2 ± 1.2
333.15 K, x1 = 0.5949	821.6 ± 0.3	1.4597 ± 0.0005	1212.4 ± 1.2
333.15 K, x1 = 0.7009	849 ± 0.3	1.4744 ± 0.0005	1240.2 ± 1.2
333.15 K, x1 = 0.7974	875.7 ± 0.3	1.4887 ± 0.0005	1267.8 ± 1.2
333.15 K, x1 = 0.8997	906.3 ± 0.3	1.5055 ± 0.0005	1300.9 ± 1.2
333.15 K, x1 = 1	937.8 ± 0.2	1.5228 ± 0.0005	1336.4 ± 1.2
343.15 K, x1 = 0.1008	709.3 ± 0.3	1.3988 ± 0.0005	1078.4 ± 1.2
343.15 K, x1 = 0.2034	728.2 ± 0.3	1.4092 ± 0.0005	1095.2 ± 1.2
343.15 K, x1 = 0.3	747.6 ± 0.3	1.4192 ± 0.0005	1113.2 ± 1.2
343.15 K, x1 = 0.401	768.7 ± 0.3	1.4308 ± 0.0005	1131.6 ± 1.2
343.15 K, x1 = 0.494	789.5 ± 0.3	1.4418 ± 0.0005	1152.9 ± 1.2
343.15 K, x1 = 0.5949	813.7 ± 0.3	1.4549 ± 0.0005	1176.1 ± 1.2
343.15 K, x1 = 0.7009	841.1 ± 0.3	1.4697 ± 0.0005	1204.1 ± 1.2
343.15 K, x1 = 0.7974	867.7 ± 0.3	1.4841 ± 0.0005	1231.5 ± 1.2
343.15 K, x1 = 0.8997	898.4 ± 0.3	1.5008 ± 0.0005	1264.7 ± 1.2
343.15 K, x1 = 1	929.8 ± 0.2	1.518 ± 0.0005	1299.8 ± 1.2
